Experimental data published in US11472766B2, “Lipid nanoparticle composition” (Suzhou Abogen Biosciences Co., Ltd., priority 2020, dated 2022).

Assays:
[1] = Encapsulation efficiency of lipid nanoparticles (Quant-it Ribogreen RNA quantification assay); assay type: physicochemical; details: LNP encapsulating hEPO mRNA
Outline: (§1)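 LNPs of cationic lipid:DSPC:cholesterol:PEG-lipid (50:10:38.5:1.5 molar) with mRNA in 10–50 mM citrate pH 4, microfluidic mixing at 1:3 ethanol:aqueous, lipid:mRNA weight ratio ~10:1–30:1, dialysed into DPBS and 0.2 μm filtered. Size by DLS, 173° backscatter; encapsulation efficiency by Ribogreen assay.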

[2] = test system: human erythropoietin (hEPO) mRNA; assay: Animal study: hEPO expression after tail vein injection of LNPs encapsulating hEPO mRNA (serum ELISA); assay type: in vivo; details: hEPO level, female ICR mice, 0.5 mg/kg, 6 hours post administration; for Expression at 6 h (μg/ml): class symbols, Table 3; for Expression at 6 h: Table 2
Outline: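 Female ICR mice (6-8 weeks) received LNPs carrying hEPO mRNA by tail vein injection at 0.5 mg/kg, with MC3 LNPs dosed the same way as positive control. Blood was drawn at set times (e.g., 6 h) and serum separated. hEPO was quantified by ELISA and reported as μg/ml.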

[3] = Lipid nanoparticle size by dynamic light scattering (Malvern Zetasizer Nano ZS); assay type: physicochemical; details: LNP: cationic lipid/DSPC/cholesterol/PEG-lipid 50:10:38.5:1.5, hEPO mRNA
Outline: as §1

[4] = Apparent pKa of LNP formulations (TNS fluorescence assay); details: LNP cationic lipid/DSPC/cholesterol/DMG-PEG 50/10/38.5/1.5 mol %

Structure (SMILES): CCCCCCCCC(CCCCCC)CNC(=O)CCCCCN(CCCCCC(=O)OCC(CCCCCC)CCCCCCCC)CCN(CCC)C1CCC(O)CC1 (stereo not shown) [Compound 133]
- Encapsulation Efficiency ([1]; Table 3): 90.6%
- Expression at 6 h (μg/ml) [2]: A (≥2)
- polydispersity ([3]; Table 3): 0.083
- size nm ([3]; Table 3): 109.90 nm
- Apparant Pka ([4]; Table 3): 6.668

Structure (SMILES): CCCCCCCCC(CCCCCC)CNC(=O)CCCCCN(CCCCCC(=O)NCC(CCCCCC)CCCCCCCC)CCN(CCO)C1CC(O)C1 (stereo not shown) [Compound 134]
- Encapsulation Efficiency ([1]; Table 3): 87.9%
- Expression at 6 h (μg/ml) [2]: A (≥2)
- polydispersity ([3]; Table 3): 0.033
- size nm ([3]; Table 3): 105.50 nm
- Apparant Pka ([4]; Table 3): 6.442

Structure (SMILES): CCCCCCCCC(CCCCCC)CNC(=O)CCCCCN(CCCCCC(=O)NCC(CCCCCC)CCCCCCCC)CCN(CCC)C1CCC(O)CC1 (stereo not shown) [Compound 135]
- Encapsulation Efficiency ([1]; Table 3): 85.6%
- Expression at 6 h (μg/ml) [2]: C (≥0.1 and <1)
- polydispersity ([3]; Table 3): 0.035
- size nm ([3]; Table 3): 104.1 nm
- Apparant Pka ([4]; Table 3): 6.652

Structure (SMILES): CCCCCCCCC(CCCCCCCC)CNC(=O)CCCCCN(CCCCCC(=O)NCC(CCCCCCCC)CCCCCCCC)CCN(CCO)C1CCCCC1 [Compound 137]
- Encapsulation Efficiency ([1]; Table 3): 95.29%
- Expression at 6 h (μg/ml) [2]: A (≥2)
- polydispersity ([3]; Table 3): 0.029
- size nm ([3]; Table 3): 60.84 nm
- Apparant Pka ([4]; Table 3): 6.751

Structure (SMILES): CCCCCCCCC(CCCCCCCC)CNC(=O)CCCCCN(CCCCCC(=O)OCC(CCCCCCCC)CCCCCCCC)CCN(CCO)C1CCCCC1 [Compound 138]
- Encapsulation Efficiency ([1]; Table 3): 94.50%
- Expression at 6 h (μg/ml) [2]: A (≥2)
- polydispersity ([3]; Table 3): 0.013
- size nm ([3]; Table 3): 63.52 nm
- Apparant Pka ([4]; Table 3): 6.688

Structure (SMILES): CCCCCCCCC(CCCCCCCC)CNC(=O)CCCCCN(CCCCCC(=O)OCC(CCCCCCCC)CCCCCCCC)CCN(CCO)C1CCCCCC1 [Compound 139]
- Encapsulation Efficiency ([1]; Table 3): 92.64%
- Expression at 6 h (μg/ml) [2]: A (≥2)
- polydispersity ([3]; Table 3): 0.052
- size nm ([3]; Table 3): 67.31 nm
- Apparant Pka ([4]; Table 3): 6.518

Structure (SMILES): CCCCCCC(CCCCCC)CNC(=O)CCCCCN(CCCCCC(=O)OCC(CCCCCC)CCCCCC)CCN(CCO)C1CCCC1 [Compound 140]
- Encapsulation Efficiency ([1]; Table 3): 83.4%
- Expression at 6 h (μg/ml) [2]: A (≥2)
- polydispersity ([3]; Table 3): 0.075
- size nm ([3]; Table 3): 138.7 nm
- Apparant Pka ([4]; Table 3): 6.981

Structure (SMILES): CCCCCCC(CCCCCC)CNC(=O)CCCCCN(CCCCCC(=O)OCC(CCCCCC)CCCCCC)CCN(CCO)C1CCCCCC1 [Compound 141]
- Encapsulation Efficiency ([1]; Table 3): 89.1%
- Expression at 6 h (μg/ml) [2]: A (≥2)
- polydispersity ([3]; Table 3): 0.036
- size nm ([3]; Table 3): 71.93 nm
- Apparant Pka ([4]; Table 3): 6.766

Structure (SMILES): CCCCCCC(CCCCCC)CC(=O)NCCCCCN(CCCCCOC(=O)CC(CCCCCC)CCCCCC)CCN(CCO)C1CCCCCC1 [Compound 142]
- Encapsulation Efficiency ([1]; Table 3): 85.3%
- Expression at 6 h (μg/ml) [2]: A (≥2)
- polydispersity ([3]; Table 3): 0.027
- size nm ([3]; Table 3): 81.13 nm
- Apparant Pka ([4]; Table 3): 6.678

Structure (SMILES): CCCCCCCCC(CCCCCCCC)CC(=O)NCCCCCN(CCCCCOC(=O)CC(CCCCCCCC)CCCCCCCC)CCN(CCO)C1CCCC1 [Compound 143]
- Encapsulation Efficiency ([1]; Table 3): 93.2%
- Expression at 6 h (μg/ml) [2]: A (≥2)
- polydispersity ([3]; Table 3): 0.032
- size nm ([3]; Table 3): 58.61 nm
- Apparant Pka ([4]; Table 3): 6.836

Structure (SMILES): CCCCCCCCC(CCCCCCCC)CC(=O)NCCCCCN(CCCCCNC(=O)CC(CCCCCCCC)CCCCCCCC)CCN(CCO)C1CCCCCC1 [Compound 144]
- Encapsulation Efficiency ([1]; Table 3): 95.0%
- Expression at 6 h (μg/ml) [2]: A (≥2)
- polydispersity ([3]; Table 3): 0.035
- size nm ([3]; Table 3): 64.08 nm
- Apparant Pka ([4]; Table 3): 6.794

Structure (SMILES): CCCCCCCCC(CCCCCCCC)CC(=O)NCCCCCN(CCCCCOC(=O)CC(CCCCCCCC)CCCCCCCC)CCN(CCO)C1CCCCCC1 [Compound 145]
- Encapsulation Efficiency ([1]; Table 3): 93.1%
- Expression at 6 h (μg/ml) [2]: A (≥2)
- polydispersity ([3]; Table 3): 0.04
- size nm ([3]; Table 3): 61.5 nm
- Apparant Pka ([4]; Table 3): 6.634

Structure (SMILES): CCCCCCCCCCCOC(=O)CCCCCN(CCCCCC(=O)NCC(CCCCCCCC)CCCCCCCC)CCN(CCO)C1CCC1 [Compound 146]
- Encapsulation Efficiency ([1]; Table 3): 94.6%
- Expression at 6 h (μg/ml) [2]: B (≥1 and <2)
- polydispersity ([3]; Table 3): 0.052
- size nm ([3]; Table 3): 66.27 nm
- Apparant Pka ([4]; Table 3): 7.496

Structure (SMILES): CCCCCCCCCCCOC(=O)CCCCCN(CCCCCC(=O)NCC(CCCCCCCC)CCCCCCCC)CCN(CCO)C1CCCC1 [Compound 147]
- Encapsulation Efficiency ([1]; Table 3): 91.4%
- Expression at 6 h (μg/ml) [2]: A (≥2)
- polydispersity ([3]; Table 3): 0.082
- size nm ([3]; Table 3): 69.58 nm
- Apparant Pka ([4]; Table 3): 7.304

Structure (SMILES): CCCCCCCCCCCOC(=O)CCCCCN(CCCCCC(=O)NCC(CCCCCCCC)CCCCCCCC)CCN(CCO)C1CCCCC1 [Compound 148]
- Encapsulation Efficiency ([1]; Table 3): 85.6%
- Expression at 6 h (μg/ml) [2]: A (≥2)
- polydispersity ([3]; Table 3): 0.046
- size nm ([3]; Table 3): 83.84 nm
- Apparant Pka ([4]; Table 3): 7.146

Structure (SMILES): CCCCCCCCCCCOC(=O)CCCCCN(CCCCCC(=O)NCC(CCCCCCCC)CCCCCCCC)CCN(CCO)C1CCCCCC1 [Compound 149]
- Encapsulation Efficiency ([1]; Table 3): 86.3%
- Expression at 6 h (μg/ml) [2]: B (≥1 and <2)
- polydispersity ([3]; Table 3): 0.07
- size nm ([3]; Table 3): 72.85 nm
- Apparant Pka ([4]; Table 3): 6.810

Structure (SMILES): CCCCCCCCOC(CCCCCN(CCCCCC(=O)NCC(CCCCCC)CCCCCC)CCN(CCO)C1CCC1)OCCCCCCCC [Compound 150]
- Encapsulation Efficiency ([1]; Table 3): 93.5%
- Expression at 6 h (μg/ml) [2]: A (≥2)
- polydispersity ([3]; Table 3): 0.06
- size nm ([3]; Table 3): 66.33 nm
- Apparant Pka ([4]; Table 3): 6.918

Structure (SMILES): CCCCCCCCCCCOC(=O)CCCCCN(CCCCCC(=O)NCC(CCCCCCCC)CCCCCCCC)CCN(CCO)C1CC1 [Compound 151]
- Encapsulation Efficiency ([1]; Table 3): 94.0%
- Expression at 6 h (μg/ml) [2]: C (≥0.1 and <1)
- polydispersity ([3]; Table 3): 0.061
- size nm ([3]; Table 3): 73.86 nm
- Apparant Pka ([4]; Table 3): 6.948

Structure (SMILES): CCCCCCC(CCCCCC)CC(=O)NCCCCCN(CCCCCOC(=O)CC(CCCCCC)CCCCCC)CCN(CCO)C1CCCCC1 [Compound 152]
- Encapsulation Efficiency ([1]; Table 3): 88.2%
- Expression at 6 h (μg/ml) [2]: A (≥2)
- polydispersity ([3]; Table 3): 0.026
- size nm ([3]; Table 3): 92.17 nm
- Apparant Pka ([4]; Table 3): 6.686

Structure (SMILES): CCCCCCC(CCCCCC)CC(=O)NCCCCCN(CCCCCOC(=O)CC(CCCCCC)CCCCCC)CCN(CCO)C1CC1 [Compound 153]
- Encapsulation Efficiency ([1]; Table 3): 85.5%
- Expression at 6 h (μg/ml) [2]: A (≥2)
- polydispersity ([3]; Table 3): 0.059
- size nm ([3]; Table 3): 107.4 nm
- Apparant Pka ([4]; Table 3): 6.621

Structure (SMILES): CCCCCCC(CCCCCC)CC(=O)NCCCCCN(CCCCCOC(=O)CC(CCCCCC)CCCCCC)CCN(CCO)C1CCCC1 [Compound 154]
- Encapsulation Efficiency ([1]; Table 3): 88.4%
- Expression at 6 h (μg/ml) [2]: A (≥2)
- polydispersity ([3]; Table 3): 0.068
- size nm ([3]; Table 3): 104.8 nm
- Apparant Pka ([4]; Table 3): 6.836

Structure (SMILES): CCCCCCCCC(CCCCCC)COC(=O)NCCCCN(CCCCNC(=O)OCC(CCCCCC)CCCCCCCC)CCN(CCO)C1CCC1 (stereo not shown) [Compound 155]
- Encapsulation Efficiency ([1]; Table 3): 98.4%
- Expression at 6 h (μg/ml) [2]: B (≥1 and <2)
- polydispersity ([3]; Table 3): 0.035
- size nm ([3]; Table 3): 64.39 nm
- Apparant Pka ([4]; Table 3): 6.797

Structure (SMILES): CCCCCCCCC(CCCCCC)COC(=O)CCCCCN(CCCCCC(=O)OCC(CCCCCC)CCCCCCCC)CCNCCO (stereo not shown) [Compound A]
- Encapsulation Efficiency ([1]; Table 2): 100.0%
- Expression at 6 h [2]: 0.01 µg/mL
- polydispersity ([3]; Table 2): 0.108
- size nm ([3]; Table 2): 58.5 nm
- Apparant Pka ([4]; Table 2): 6.96

Structure (SMILES): CCCCCCCCC(CCCCCC)COC(=O)CCCCCN(CCCCCC(=O)OCC(CCCCCC)CCCCCCCC)CCN(C)CCO (stereo not shown) [Compound B]
- Encapsulation Efficiency ([1]; Table 2): 100.0%
- Expression at 6 h [2]: 0.44 µg/mL
- polydispersity ([3]; Table 2): 0.060
- size nm ([3]; Table 2): 79.0 nm
- Apparant Pka ([4]; Table 2): 7.33

Structure (SMILES): CCCCCCCCC(CCCCCC)COC(=O)CCCCCN(CCCCCC(=O)OCC(CCCCCC)CCCCCCCC)CCN(CCO)CCCC (stereo not shown) [Compound C]
- Encapsulation Efficiency ([1]; Table 2): 96.9%
- Expression at 6 h [2]: 2.95 µg/mL
- polydispersity ([3]; Table 2): 0.061
- size nm ([3]; Table 2): 65.0 nm
- Apparant Pka ([4]; Table 2): 6.46

Structure (SMILES): CCCCCCCCC(CCCCCC)COC(=O)CCCCCN(CCCCCC(=O)OCC(CCCCCC)CCCCCCCC)CCN(CCO)CCCCCC (stereo not shown) [Compound D]
- Encapsulation Efficiency ([1]; Table 2): 95.5%
- Expression at 6 h [2]: 1.02 µg/mL
- polydispersity ([3]; Table 2): 0.118
- size nm ([3]; Table 2): 59.2 nm
- Apparant Pka ([4]; Table 2): 6.28
